How the values were obtained:
[1] = Plasma protein binding rate (PPB) test, SD rat plasma; assay type: in vitro ADME; settings: 2 μM, dialysis 37° C. 4 hours
Experimental: The protein binding rates of the test compound in the plasma of humans and SD rats were determined.
796 μL of blank plasma from humans and SD rats (plasma purchased from BioreclamationIVT) were taken, 4 μL of working solution of the test compound (400 μM) or warfarin working solution (400 μM) was added and the final concentration of the test compound or warfarin was 2 μM. The sample was mixed thoroughly. […] All samples were analyzed by LC/MS/MS after protein precipitation, and the plasma protein unbound rate, binding rate and recovery rate was calculated according to the following formula: % unbound rate=100*free compound concentration at the membrane buffer side/total compound concentration at the membrane plasma side, % protein binding rate=100−% unbound rate, % recovery rate=100*(free compound concentration at the membrane buffer side+total compound concentration at the membrane plasma side)/total compound concentration before dialysis.

CYP2C9 = molecular target: T1, CYP2C9 (Homo sapiens, UniProt P11712); experiment: Cytochrome P450 isozyme inhibitory activity test, CYP2C9; assay type: in vitro ADME; settings: liver microsomes; human liver microsome
T1 construct: from tissue; host or cells: human liver microsomes
Experimental: (§1) The inhibitory activities of the test compound on different subtypes of human cytochrome P450 isozymes were determined. The test compound, standard inhibitor (100× final concentration), and a mixed substrate working solution were prepared; the microsome frozen in −80° C. refrigerator was thawed. […]

CYP2D6 = molecular target: T2, CYP2D6 (Homo sapiens, UniProt P10635); experiment: Cytochrome P450 isozyme inhibitory activity test, CYP2D6; assay type: in vitro ADME; settings: liver microsomes; human liver microsome
T2 construct: from tissue; host or cells: human liver microsomes
Experimental: as §1

[2] = In vivo pharmacokinetic study in mice after single administration; parameters: species or system CD-1 mice; settings: male, CD-1, mouse, plasma
Experimental: Male CD-1 mice were used as test animals, the concentration of the compound in blood was determined after single administration to evaluate the pharmacokinetic behavior.
CD-1 mice (male, 20-40 g, 6-9 weeks, Shanghai Sippr-Bk Laboratory Animal Co., Ltd.)
The pharmacokinetic characteristics of the test compound in rodents after intravenous injection and oral administration were tested by standard protocols, in the experiment, the test compound was prepared into a clear solution or homogeneous suspension, and administered to the mice by single intravenous injection and oral administration. In the intravenous injection group, the menstruum was a certain proportion of ethanol, Cremophor EL and physiological saline solution, the mixture was vortexed to prepare 1 mg/mL clear solution, then filtered with microporous membrane for later use; in the oral administration group, the menstruum was a certain proportion of methyl cellulose solution or certain proportion of methyl cellulose and Tween 80 aqueous solution, the test compound was mixed with the menstruum, and the mixture was vortexed to prepare 10 mg/mL clear or homogeneous suspension for later use. After 2 mg/kg intravenous administration or 100 mg/kg oral administration to the mice, a certain amount of whole blood samples were collected, centrifuged at 3200 g for 10 minutes, the supernatant was separated to obtain the plasma samples, and the samples were diluted multiple times with blank plasma according to actual needs. The plasma sample was added to acetonitrile solution containing the internal standard with a volume 20 times that of the plasma sample to precipitate proteins, and then centrifuged; the supernatant was separated, and water with a volume twice that of the supernatant was added to the supernatant, which was then centrifuged again; the supernatant was collected for analysis; LC-MS/MS analysis method was used to quantitatively analyze the blood drug concentration, and Phoenix WinNonlin software (Pharsight, USA) was used to calculate the pharmacokinetic parameters, such as peak concentration, time to peak concentration, clearance rate, half-life, area under the concentration-time curve, bioavailability, etc.
Among them, C0 is the initial concentration, T1/2 is the elimination half-life, Vdss is the steady-state apparent volume of distribution, Cl is the total clearance rate, AUC0-inf is the area under the plasma drug concentration-time curve from time 0 to infinity, Cmax is the peak concentration, Tmax is the time to peak concentration.

[3] = 2 mg/kg, 2 mpk intravenous injection
[4] = 100 mg/kg, 100 mpk oral administration

T2 sequence (P10635 whole entry): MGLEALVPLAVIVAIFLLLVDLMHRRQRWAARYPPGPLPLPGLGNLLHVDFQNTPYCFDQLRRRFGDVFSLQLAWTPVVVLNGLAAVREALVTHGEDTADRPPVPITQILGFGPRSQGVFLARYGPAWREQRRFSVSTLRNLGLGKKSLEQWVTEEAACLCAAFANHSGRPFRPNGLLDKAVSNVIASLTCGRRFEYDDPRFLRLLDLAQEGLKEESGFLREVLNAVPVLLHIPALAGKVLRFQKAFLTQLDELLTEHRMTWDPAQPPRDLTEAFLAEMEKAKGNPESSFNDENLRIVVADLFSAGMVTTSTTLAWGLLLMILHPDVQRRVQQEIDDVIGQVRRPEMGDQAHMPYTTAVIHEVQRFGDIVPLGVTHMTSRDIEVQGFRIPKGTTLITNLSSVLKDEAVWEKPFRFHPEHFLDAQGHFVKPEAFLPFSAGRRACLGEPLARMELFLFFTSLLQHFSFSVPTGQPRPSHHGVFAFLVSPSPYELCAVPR
T1 sequence (P11712 whole entry): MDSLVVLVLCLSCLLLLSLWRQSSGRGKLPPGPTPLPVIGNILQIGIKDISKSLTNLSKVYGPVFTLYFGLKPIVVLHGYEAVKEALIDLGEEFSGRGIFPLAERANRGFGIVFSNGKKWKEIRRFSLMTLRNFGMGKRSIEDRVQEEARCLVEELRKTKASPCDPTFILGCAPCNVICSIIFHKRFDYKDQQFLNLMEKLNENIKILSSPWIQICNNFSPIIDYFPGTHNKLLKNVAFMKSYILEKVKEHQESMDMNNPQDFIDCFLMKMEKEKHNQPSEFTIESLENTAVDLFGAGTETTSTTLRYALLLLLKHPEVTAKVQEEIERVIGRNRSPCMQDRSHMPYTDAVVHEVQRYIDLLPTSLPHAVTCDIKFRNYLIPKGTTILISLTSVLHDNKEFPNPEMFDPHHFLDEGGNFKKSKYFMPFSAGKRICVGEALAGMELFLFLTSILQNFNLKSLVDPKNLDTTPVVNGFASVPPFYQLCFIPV

With `COCCN1C[C@@H](n2ccc(F)c2)[C@H](NC(=O)Nc2c(C)c(-c3cnc(C4(F)COC4)nc3)nn2-c2ccccc2)C1` [Compound of formula (I)] the “Plasma protein unbound rate, SD rat plasma” value [1] was 7.1%, the IC50 at 10 min (CYP2C9) was 39.1 µM and the IC50 at 10 min (CYP2D6) was 40.6 µM. It also gave an AUC(0-inf) [2, 3] of 1.44 µM·h, a C0 [2, 3] of 2.72 µM and a clearance [2, 3] of 41.7 mL/min/kg. For the same molecule, the half-life [2, 3] was 34.2 min, the Vd ([2]; 2 mg/kg, 2 mpk intravenous injection, read-out: Vdss) was 1.54 L/kg and the AUC(0-inf) [2, 4] was 37.6 µM·h. The Cmax [2, 4] was 25.6 µM, the Tmax [2, 4] was 22.8 min and the bioavailability [2, 4] was 52.2%. The half-life [2, 4] was 55.2 min.
